In patent publication US10844062B2, “Pyridine derivative inhibiting RAF kinase and vascular endothelial growth factor receptor, method for preparing same, pharmaceutical composition containing same, and use thereof” (SAMJIN PHARMACEUTICAL CO., LTD., priority 2016, dated 2020):

Test system: LS513 KRAS G12V (colon)
Test: MTT assay
Assay type: cell-based
Conditions: Homo sapiens, LS-513, 72 h, Table 4; 3 days incubation; read-out: MTT assay IC50 KRAS mutant (Colon) LS513 KRAS G12V
Procedure: MTT assay is frequently used for the purpose of primary screening for the sensitivity of anticancer agents and to examine cytotoxicity. When cancer cells are treated with varying concentrations of any anticancer agent for a predetermined time to induce death of the cells and are then treated with MTT, and when the formation of formazan is measured, the concentration of the anticancer agent, at which about 50% of the cells survive, can be determined. This concentration value is called IC50. IC50 values differ between drugs, and thus can be characteristic of the drugs. Using this method, the effects of anticancer agents against cell proliferation can be quantitatively compared. Thus, in order to measure the cytotoxicity of samples, MTT assay was performed using CellTiter 96 Non-radioactive Cell Proliferation Assay Kit (Promega).
Cells in a cell suspension were counted with a hematocytometer, and then 200 μL of the cell suspension was added to each well of a 96 well plate at a desired concentration (cell amount determined depending on a cell line). After cell seeding, the cells were incubated in a CO2 incubator at 37° C. overnight. After one day of cell stabilization, the cells were treated with desired concentrations of the compounds. The cells were incubated in a CO2 incubator at 37° C. for 3 days, and then the sample was removed, and 200 μL of MTT solution was added to each well. After 2 hours of incubation, the MTT dilution was carefully shaken, and 200 μL of DMSO was added to each well, followed by shaking with a plate shaker for 60 minutes.

CC(C)(C#N)c1cccc(C(=O)Nc2ccc(Nc3ncccc3-c3ncnc4[nH]cnc34)c(F)c2)c1 [Example 39, N-(4-(3-(9H-Purin-6-Yl)Pyridin-2-Ylamino)-3-Fluorophenyl)-3-(2-Cyanopropan-2-Yl)Benzamide] was tested. Which IC50 did it give?
Its IC50 is > 10000 nM.

How did the IC50 turn out when O=C(Nc1ccc(F)c(Nc2ncccc2-c2ncnc3[nH]cnc23)c1F)c1cc([N+](=O)[O-])cc(C(F)(F)F)c1 [Example 40, N-(3-(3-(9H-Purin-6-Yl)Pyridin-2-Ylamino)-2,4-Difluorophenyl)-3-Nitro-5-(Trifluoromethyl)Benzamide] was run?
Its IC50 is 163 nM.

With CC(C)(C#N)c1cc(C(=O)Nc2ccc(F)c(Nc3ncccc3-c3ncnc4[nH]cnc34)c2F)ccc1Cl [Example 41, N-(3-(3-(9H-Purin-6-Yl)Pyridin-2-Ylamino)-2,4-Difluorophenyl)-4-Chloro-3-(2-Cyanopropan-2-Yl)Benzamide] as the compound, how does the IC50 read?
Its IC50 is 475 nM.

CC(C)(C#N)c1cccc(C(=O)Nc2ccc(F)c(Nc3ncccc3-c3ncnc4[nH]cnc34)c2F)c1Cl [Example 42, N-(3-(3-(9H-Purin-6-Yl)Pyridin-2-Ylamino)-2,4-Difluorophenyl)-2-Chloro-3-(2-Cyanopropan-2-Yl)Benzamide] was tested. Which IC50 did it give?
The IC50 was 1330 nM.

For CC(C)(C#N)c1cc(F)cc(C(=O)Nc2ccc(F)c(Nc3ncccc3-c3ncnc4[nH]cnc34)c2F)c1 [Example 43, N-(3-(3-(9H-Purin-6-Yl)Pyridin-2-Ylamino)-2,4-Difluorophenyl)-3-(2-Cyanopropan-2-Yl)-5-Fluorobenzamide], which IC50 is on record?
The IC50 was 402 nM.

CC(C)(C#N)c1cc(C(=O)Nc2ccc(F)c(Nc3ncccc3-c3ncnc4[nH]cnc34)c2F)cc(F)c1F [Example 44, N-(3-(3-(9H-Purin-6-Yl)Pyridin-2-Ylamino)-2,4-Difluorophenyl)-3-(2-Cyanopropan-2-Yl)-4,5-Difluorobenzamide] was tested. Which IC50 did it give?
The IC50 was 1320 nM.

O=C(Nc1ccc(F)c(Nc2ncccc2-c2ncnc3[nH]cnc23)c1F)c1cccc(Cl)c1 [Example 45, N-(3-(3-(9H-Purin-6-Yl)Pyridin-2-Ylamino)-2,4-Difluorophenyl)-3-Chlorobenzamide] was tested. Which IC50 did it give?
The IC50 was > 10000 nM.

How did the IC50 turn out when CN(C)c1cccc(C(=O)Nc2ccc(F)c(Nc3ncccc3-c3ncnc4[nH]cnc34)c2F)c1 [Example 46, N-(3-(3-(9H-Purin-6-Yl)Pyridin-2-Ylamino)-2,4-Difluorophenyl)-3-(Dimethylamino)Benzamide] was run?
Its IC50 is 7090 nM.

For Cc1cccc(C(=O)Nc2ccc(F)c(Nc3ncccc3-c3ncnc4[nH]cnc34)c2F)c1 [Example 47, N-(3-(3-(9H-Purin-6-Yl)Pyridin-2-Ylamino)-2,4-Difluorophenyl)-3-Methylbenzamide], which IC50 is on record?
Its IC50 is > 10000 nM.

How did the IC50 turn out when O=C(Nc1cccc(Nc2ncccc2-c2ncnc3[nH]cnc23)c1)c1cccc(Cl)c1 [Example 48, N-(3-(3-(9H-Purin-6-Yl)Pyridin-2-Ylamino)Phenyl)-3-Chlorobenzamide] was run?
Its IC50 is 2480 nM.

CC(C)(C#N)c1cccc(C(=O)Nc2ccc(F)c(Nc3ncccc3-c3ncnc4[nH]cnc34)c2)c1 [Example 49, N-(3-(3-(9H-Purin-6-Yl)Pyridin-2-Ylamino)-4-Fluorophenyl)-3-(2-Cyanopropan-2-Yl)Benzamide] was tested. Which IC50 did it give?
Its IC50 is 192 nM.

With O=C(Nc1ccc(F)c(Nc2ncccc2-c2ncnc3[nH]cnc23)c1)c1cccc(C(F)(F)F)c1 [Example 50, N-(3-(3-(9H-Purin-6-Yl)Pyridin-2-Ylamino)-4-Fluorophenyl)-3-(Trifluoromethyl)Benzamide] as the compound, how does the IC50 read?
The IC50 was 221 nM.

For O=C(Nc1cccc(Nc2ncccc2-c2ncnc3[nH]cnc23)c1)c1cccc(C(F)(F)F)c1 [Example 51, N-(3-(3-(9H-Purin-6-Yl)Pyridin-2-Ylamino)Phenyl)-3-(Trifluoromethyl)Benzamide], which IC50 is on record?
Its IC50 is 5670 nM.

For O=C(Nc1ccc(F)c(Nc2ncccc2-c2ncnc3[nH]cnc23)c1F)c1ccc([N+](=O)[O-])cc1 [Example 52, N-(3-(3-(9H-Purin-6-Yl)Pyridin-2-Ylamino)-2,4-Difluorophenyl)-4-Nitrobenzamide], which IC50 is on record?
Its IC50 is > 10000 nM.

Which IC50 does the source give for Nc1cccc(C(=O)Nc2ccc(F)c(Nc3ncccc3-c3ncnc4[nH]cnc34)c2F)c1 [Example 54, N-(3-(3-(9H-Purin-6-Yl)Pyridin-2-Ylamino)-2,4-Difluorophenyl)-3-Aminobenzamide] here?
The IC50 was > 10000 nM.

Which IC50 does the source give for COC(=O)Nc1cccc(C(=O)Nc2ccc(F)c(Nc3ncccc3-c3ncnc4[nH]cnc34)c2F)c1 [Example 55, Methyl 3-(3-(3-(9H-Purin-6-Yl)Pyridin-2-Ylamino)-2,4-Difluorophenylcarbamoyl)Phenylcarbamate] here?
The IC50 was > 10000 nM.

For O=C(Nc1ccc(F)c(Nc2ncccc2-c2ncnc3[nH]cnc23)c1F)c1cnccn1 [Example 56, N-(3-(3-(9H-Purin-6-Yl)Pyridin-2-Ylamino)-2,4-Difluorophenyl)Pyrazine-2-Carboxamide], which IC50 is on record?
The IC50 was > 10000 nM.

Which IC50 does the source give for O=C(Nc1ccc(F)c(Nc2ncccc2-c2ncnc3[nH]cnc23)c1F)c1ccccc1 [Example 57, N-(3-(3-(9H-Purin-6-Yl)Pyridin-2-Ylamino)-2,4-Difluorophenyl)Benzamide] here?
Its IC50 is > 10000 nM.

Which IC50 does the source give for O=C(Nc1ccc(F)c(Nc2ncccc2-c2ncnc3[nH]cnc23)c1F)c1cc(C(F)(F)F)cc(C(F)(F)F)c1 [Example 58, N-2,4-Difluoro-3-[3-(9H-Purin-6-Yl)Pyridin-2-Ylamino)-Phenyl-3,5-Bistrifluoromethylbenzamide] here?
The IC50 was 407 nM.

Which IC50 does the source give for O=C(Nc1cc(Nc2ncccc2-c2ncnc3[nH]cnc23)ccc1F)c1ccc(Cl)c(C(F)(F)F)c1 [Example 61, 4-Chloro-N-2-Fluoro-5-[3-(9H-Purin-6-Yl)Pyridin-2-Ylamino)Phenyl-3-(Trifluoromethyl)Benzamide] here?
Its IC50 is 439 nM.

How did the IC50 turn out when O=C(Nc1cc(Nc2ncccc2-c2ncnc3[nH]cnc23)ccc1F)c1cc([N+](=O)[O-])cc(C(F)(F)F)c1 [Example 62, N-2-Fluoro-5-[3-(9H-Purin-6-Yl)Pyridin-2-Ylamino)Phenyl-3-Nitro-5-(Trifluoromethyl)Benzamide] was run?
Its IC50 is 702 nM.

For Cc1cccc(C(=O)Nc2cc(Nc3ncccc3-c3ncnc4[nH]cnc34)ccc2F)n1 [Example 64, N-2-Fluoro-5-[3-(9H-Purin-6-Yl)Pyridin-2-Ylamino)Phenyl-(6-Methylpyridin-2-Yl)Benzamide], which IC50 is on record?
The IC50 was 300 nM.

With O=C(Nc1cc(Nc2ncccc2-c2ncnc3[nH]cnc23)ccc1Cl)c1cccc(C(F)(F)F)c1 [Example 66, N-2-Chloro-5-[3-(9H-Purin-6-Yl)Pyridin-2-Ylamino)Phenyl-3-Trifluoromethylbenzamide] as the compound, how does the IC50 read?
Its IC50 is 135 nM.

For O=C(Nc1cc(Nc2ncccc2-c2ncnc3[nH]cnc23)ccc1Cl)c1cc(F)cc(C(F)(F)F)c1 [Example 67, N-2-Chloro-5-[3-(9H-Purin-6-Yl)Pyridin-2-Ylamino)Phenyl-3-Fluoro-5-Trifluoromethylbenzamide], which IC50 is on record?
Its IC50 is 6590 nM.

With Cc1ccc(Nc2ncccc2-c2ncnc3[nH]cnc23)cc1NC(=O)c1cccc(C(F)(F)F)c1 [Example 68, N-2-Methyl-5-[3-(9H-Purin-6-Yl)Pyridin-2-Ylamino)Phenyl-3-Trifluoromethylbenzamide] as the compound, how does the IC50 read?
The IC50 was 6590 nM.

COc1ccc(Nc2ncccc2-c2ncnc3[nH]cnc23)cc1NC(=O)c1cccc(C(F)(F)F)c1 [Example 69, N-2-Methoxy-5-[3-(9H-Purin-6-Yl)Pyridin-2-Ylamino)Phenyl-3-Trifluoromethylbenzamide] was tested. Which IC50 did it give?
Its IC50 is 7100 nM.

With COc1ccc(NC(=O)c2cccc(C(F)(F)F)c2)cc1Nc1ncccc1-c1ncnc2[nH]cnc12 [Example 70, N-4-Methoxy-5-[3-(9H-Purin-6-Yl)Pyridin-2-Ylamino)Phenyl-3-Trifluoromethylbenzamide] as the compound, how does the IC50 read?
Its IC50 is 757 nM.

With O=C(Nc1c(F)ccc(Nc2ncccc2-c2ncnc3[nH]cnc23)c1F)c1cccc(C(F)(F)F)c1 [Example 72, N-2,6-Difluoro-3-[3-(9H-Purin-6-Yl)Pyridin-2-Ylamino)Phenyl-3-Trifluoromethylbenzamide] as the compound, how does the IC50 read?
Its IC50 is 1270 nM.

For O=C(Nc1cccc(C(F)(F)F)c1)c1cc(Nc2ncccc2-c2ncnc3[nH]cnc23)ccc1F [Example 73, 2-Fluoro-5-[3-(9H-Purin-6-Yl)Pyridin-2-Ylamino]-N-(3-Trifluoromethylphenyl)Benzamide], which IC50 is on record?
Its IC50 is 80 nM.

For O=C(Nc1ccc(Cl)c(C(F)(F)F)c1)Nc1cc(Nc2ncccc2-c2ncnc3[nH]cnc23)ccc1F [Example 74, 1-(4-Chloro-3-Trifluoromethylphenyl)-3-2-Fluoro-5-[3-(9H-Purin-6-Yl)Pyridin-2-Ylamino]Phenylurea], which IC50 is on record?
The IC50 was 68 nM.

For O=C(Nc1cccc(C(F)(F)F)c1)Nc1ccc(Nc2ncccc2-c2ncnc3[nH]cnc23)c(F)c1 [Example 75, 1-3-Fluoro-4-[3-(9H-Purin-6-Yl)Pyridin-2-Ylamino]Phenyl-3-(3-Trifluoromethylphenyl)Urea], which IC50 is on record?
The IC50 was > 10000 nM.

O=C(Cc1cccc(C(F)(F)F)c1)Nc1cc(Nc2ncccc2-c2ncnc3[nH]cnc23)ccc1F [Example 76, N-2-Fluoro-5-[3-(9H-Purin-6-Yl)Pyridin-2-Ylamino]Phenyl-2-(3-Trifluoromethylphenyl)Acetamide] was tested. Which IC50 did it give?
The IC50 was 426 nM.

With N#CCc1cccc(NC(=O)c2ccc(F)c(Nc3ncccc3-c3ncnc4[nH]cnc34)c2)c1 [Example 77, N-(3-Cyanomethylphenyl)-4-Fluoro-3-[3-(9H-Purin-6-Yl)Pyridin-2-Ylamino]Benzamide] as the compound, how does the IC50 read?
Its IC50 is 145000 nM.

Which IC50 does the source give for N#CCc1ccc(C(=O)Nc2ccc(Nc3ncccc3-c3ncnc4[nH]cnc34)c(F)c2)cc1 [Example 78, N-4-[(3-(9H-Purin-6-Yl)Pyridin-2-Yl)Amino]-3-Fluorophenyl-4-(Cyanomethyl)Benzamide] here?
Its IC50 is 137 nM.
